Measured values taken from ChEMBL document CHEMBL1201862, “PubChem BioAssay data set” (2004).
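Briefly, cells in 96-well plates were exposed to five compound concentrations for 48 h, and endpoints were estimated by linear interpolation. Here, GI50 denotes the concentration required for 50% inhibition of growth.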 Active and inactive are the calls of the source. Rule as the data show it: active = GI50 up to about 1.1 µM and inactive = higher.

Legend:
Experiment in all cases: growth of human tumour cells (NCI), 48 h
[1] = tested on: OVCAR-8
[2] = tested on: SNB-19
[3] = tested on: LOX IMVI
[4] = tested on: NCI-H226
[5] = tested on: UACC-257
[6] = tested on: SF-268
[7] = tested on: TK-10
[8] = tested on: SK-MEL-5
[9] = tested on: MOLT-4
[10] = tested on: SW-620
[11] = tested on: HCC 2998
[12] = tested on: RXF 393
[13] = tested on: HOP-92
[14] = tested on: OVCAR-3
[15] = tested on: HOP-62
[16] = tested on: SK-MEL-2
[17] = tested on: NCI-H460
[18] = tested on: NCI/ADR-RES
[19] = tested on: PC-3
[20] = tested on: MCF7

SMILES	GI50 [1]	GI50 [2]	GI50 [3]	GI50 [4]	GI50 [5]	GI50 [6]	GI50 [7]	GI50 [8]	GI50 [9]	GI50 [10]	GI50 [11]	GI50 [12]	GI50 [13]	GI50 [14]	GI50 [15]	GI50 [16]	GI50 [17]	GI50 [18]	GI50 [19]	GI50 [20]
N#CC12Cc3cc4c(cc3-c3cccc(c31)CCN2C(=O)c1ccccc1)OCO4 (stereo not given)	65.3 µM (inactive)	68.1 µM (inactive)	> 100 µM (inactive)	> 100 µM (inactive)	> 100 µM (inactive)	> 100 µM (inactive)	> 100 µM (inactive)	> 100 µM (inactive)	> 100 µM (inactive)	> 100 µM (inactive)	> 100 µM (inactive)	53.1 µM (inactive)	22.8 µM (inactive)	> 100 µM (inactive)	53.8 µM (inactive)	> 100 µM (inactive)				
O=C1c2ccccc2C(=O)N1CC(CN1C(=O)c2ccccc2C1=O)(C(=O)OCc1ccccc1)C(=O)OCc1ccccc1	> 100 µM (inactive)	> 100 µM (inactive)		> 100 µM (inactive)				> 100 µM (inactive)	7.36 µM (inactive)		> 100 µM (inactive)	14.4 µM (inactive)	> 100 µM (inactive)	> 100 µM (inactive)	> 100 µM (inactive)	> 100 µM (inactive)	> 100 µM (inactive)	> 100 µM (inactive)	> 100 µM (inactive)	
CC1[C@@]2(CCC(C)(C)O2)O[C@@H]2C=C3C4CCC5Cc6nc7c(nc6C[C@@]5(C)C4C[C@H](O)[C@@]3(C)[C@]12O)CC1CCC2C3=C[C@H]4O[C@@]5(O[C@@](C)(CO)C[C@@H]5O)C(C)[C@@]4(O)[C@]3(C)[C@@H](O)CC2[C@]1(C)C7 (stereo not given in full)	0.753 µM (active)	0.224 µM (active)	0.0526 µM (active)	0.0428 µM (active)	0.138 µM (active)	0.05 µM (active)	0.681 µM (active)	0.0951 µM (active)	0.0217 µM (active)	0.064 µM (active)	0.624 µM (active)	0.00641 µM (active)	0.0524 µM (active)	0.736 µM (active)	0.0272 µM (active)	0.0783 µM (active)	0.0388 µM (active)	0.619 µM (active)		0.00959 µM (active)
COc1ccc(-c2nc3ccccc3s2)cc1OC	63.4 µM (inactive)	4.75 µM (inactive)	27.1 µM (inactive)		> 100 µM (inactive)			10.5 µM (inactive)	> 100 µM (inactive)	> 100 µM (inactive)			6.59 µM (inactive)		67.9 µM (inactive)	> 100 µM (inactive)	20.1 µM (inactive)	42.5 µM (inactive)	34.9 µM (inactive)	
CC(C)C1=Cc2ccc3c(c2C(=O)C1=O)CCCC3(C)C [MILTIRONE]	4.29 µM (inactive)	17.2 µM (inactive)	12.2 µM (inactive)	20.5 µM (inactive)	3.08 µM (inactive)	6.9 µM (inactive)	3.14 µM (inactive)	12.3 µM (inactive)	2.19 µM (inactive)	3.15 µM (inactive)	18.4 µM (inactive)	1.85 µM (inactive)	4.18 µM (inactive)	2.58 µM (inactive)	19.6 µM (inactive)	17 µM (inactive)	17.3 µM (inactive)			
CC(C)=CCC12Cc3ccc(O)cc3C(C(C)CN1)C2C (stereo not given)	> 100 µM (inactive)	> 100 µM (inactive)	42.9 µM (inactive)	> 100 µM (inactive)	27.3 µM (inactive)	> 100 µM (inactive)	> 100 µM (inactive)	> 10 µM (inactive)	52 µM (inactive)	> 100 µM (inactive)	20.8 µM (inactive)	> 100 µM (inactive)	44 µM (inactive)		> 100 µM (inactive)		52.5 µM (inactive)	> 100 µM (inactive)		81.3 µM (inactive)
C=CCN1CCC(O)(c2cc(C(=O)OCC)[nH]c2-c2cc(C)no2)C1 (stereo not given)	> 100 µM (inactive)	> 100 µM (inactive)	> 100 µM (inactive)	> 100 µM (inactive)	> 100 µM (inactive)	> 100 µM (inactive)	> 100 µM (inactive)	> 100 µM (inactive)	> 100 µM (inactive)	> 100 µM (inactive)		> 100 µM (inactive)	> 100 µM (inactive)	> 100 µM (inactive)		> 100 µM (inactive)	> 100 µM (inactive)	> 100 µM (inactive)	> 100 µM (inactive)	
N=C1N(/N=C/c2ccccn2)/C(=N\c2ccccc2)C(=S)N1c1ccccc1	3.6 µM (inactive)	15.4 µM (inactive)	2.22 µM (inactive)	13.5 µM (inactive)	9.27 µM (inactive)	5.12 µM (inactive)	11 µM (inactive)	4.48 µM (inactive)	> 100 µM (inactive)	3.47 µM (inactive)	10.2 µM (inactive)	3.15 µM (inactive)	10.8 µM (inactive)		10.2 µM (inactive)	2.14 µM (inactive)	4.15 µM (inactive)	2.83 µM (inactive)	3.57 µM (inactive)	
CC(C)(C)[C@H]1CO[C@]2(C)[C@@H]3C[C@@H]3C(=O)N12	> 100 µM (inactive)	> 100 µM (inactive)	> 100 µM (inactive)	> 100 µM (inactive)	> 100 µM (inactive)	> 100 µM (inactive)	> 100 µM (inactive)	> 100 µM (inactive)		> 100 µM (inactive)	> 100 µM (inactive)	> 100 µM (inactive)	> 100 µM (inactive)	> 100 µM (inactive)	> 100 µM (inactive)	> 100 µM (inactive)	> 100 µM (inactive)			
O=C/C(=C(/Cl)c1ccc(O)cc1)c1ccccc1	35.9 µM (inactive)	41.2 µM (inactive)	21.6 µM (inactive)	> 100 µM (inactive)	31.2 µM (inactive)	25 µM (inactive)	29 µM (inactive)	23 µM (inactive)	16.6 µM (inactive)	27.6 µM (inactive)	71.9 µM (inactive)	21.6 µM (inactive)	16.6 µM (inactive)	17.1 µM (inactive)		32.7 µM (inactive)	33.2 µM (inactive)			
C=CCC1(CN(C)C)CC/C(=C\c2cc(OC)c(OC)c(OC)c2)C1=O (stereo not given)	22.8 µM (inactive)	34 µM (inactive)	23.2 µM (inactive)	52.4 µM (inactive)	27.7 µM (inactive)	19.2 µM (inactive)	18.8 µM (inactive)	20 µM (inactive)	27.5 µM (inactive)	18.7 µM (inactive)	18.1 µM (inactive)	19.2 µM (inactive)	90.6 µM (inactive)	24 µM (inactive)	77.8 µM (inactive)	42.8 µM (inactive)	18.8 µM (inactive)			
O=C(CC(C(=O)c1ccco1)c1ccsc1)c1ccco1 (stereo not given)	> 100 µM (inactive)		> 100 µM (inactive)	> 100 µM (inactive)	> 100 µM (inactive)	> 100 µM (inactive)	> 100 µM (inactive)	> 100 µM (inactive)	37.4 µM (inactive)	> 100 µM (inactive)	> 100 µM (inactive)	48.9 µM (inactive)	> 100 µM (inactive)	91.2 µM (inactive)	> 100 µM (inactive)		71.1 µM (inactive)	38.6 µM (inactive)		> 100 µM (inactive)
Cc1cccc(NC2=NC(=O)C(CC(=O)Nc3ccccc3Cl)S2)c1 (stereo not given)	> 100 µM (inactive)	> 100 µM (inactive)	> 100 µM (inactive)	> 100 µM (inactive)	> 100 µM (inactive)	> 100 µM (inactive)	> 100 µM (inactive)	> 100 µM (inactive)	> 100 µM (inactive)	> 100 µM (inactive)	> 100 µM (inactive)	> 100 µM (inactive)	> 100 µM (inactive)	> 100 µM (inactive)		> 100 µM (inactive)	> 100 µM (inactive)			
C/C=C1\CN2CCc3c([nH]c4ccccc34)C2CC1CCO (stereo not given)	> 100 µM (inactive)	> 100 µM (inactive)	> 100 µM (inactive)	> 100 µM (inactive)	> 100 µM (inactive)	> 100 µM (inactive)	> 100 µM (inactive)	> 100 µM (inactive)	> 100 µM (inactive)	> 100 µM (inactive)	> 100 µM (inactive)	> 100 µM (inactive)	48 µM (inactive)	> 100 µM (inactive)	> 100 µM (inactive)	> 100 µM (inactive)	> 100 µM (inactive)			
CC(C)=CCc1c(C)cc2cc3c(c(O)c2c1O)C(=O)C=C(O)C3(CC=C(C)C)C/C=C(\C)CO (stereo not given)	28.8 µM (inactive)	39.8 µM (inactive)	38.5 µM (inactive)	34.2 µM (inactive)	43.7 µM (inactive)	36.7 µM (inactive)		16.4 µM (inactive)	23.2 µM (inactive)	39.8 µM (inactive)	45.2 µM (inactive)	29 µM (inactive)	33.2 µM (inactive)	36.9 µM (inactive)	36.8 µM (inactive)	13 µM (inactive)	27.4 µM (inactive)	47.9 µM (inactive)		42.7 µM (inactive)
CCOC(=O)C1=C(Nc2cccc3ccccc23)OC/C1=N\NC(=O)c1ccccc1O	17 µM (inactive)	22.1 µM (inactive)	14.3 µM (inactive)	22.3 µM (inactive)	22.9 µM (inactive)	13.4 µM (inactive)	21.1 µM (inactive)	12.9 µM (inactive)	12.6 µM (inactive)	18.8 µM (inactive)	54.1 µM (inactive)	3.96 µM (inactive)	11.1 µM (inactive)	10.6 µM (inactive)	13.5 µM (inactive)	29.8 µM (inactive)	14.8 µM (inactive)			
